For one experiment, the target named is T1, hSTING protein (Homo sapiens, UniProt Q86WV6).
T1 construct: purchased Cisbio
The experiment can be described thus: Human STING binding kit (HTRF) competitive binding assay. Conditions: for Ki: calculated as Ki=1/2*IC50 per kit instructions; for IC50: competition with d2-STING-ligand for 6×His-hSTING, HTRF, 3 h at 25° C.; for binding affinity to the hSTING protein: result in words. The source says:
In this experiment, the capability of the compound and the specific ligand (d2-STING-ligand) in a Human STING binding kit from Cisbio for competitively binding to the 6×His-hSTING protein was detected using the Human STING binding kit (HTRF method), so as to evaluate the binding affinity between the compound to be tested and the hSTING protein.
The compound was gradiently diluted with a dilution buffer in the Human STING binding kit (the diluent buffer reagent) to obtain a 4× working concentration diluted solution. […] The 6×His-hSTING protein (50× in the mother liquor) was diluted to 1× with the detection buffer in the Human STING binding kit (the detection buffer reagent). 5 μl of the diluted solution was added into the corresponding wells of a 384-well plate, and the well with no protein and no compound was set as a negative control well (min), while the well with the protein and no compound was set as a positive control well (max). The d2-STING-ligand and Tb^3+-anti-6×His-antibody (both 50× in the mother liquor) were diluted to 1× with the detection buffer in the Human STING binding kit (the detection buffer reagent), and mixed uniformly at a ratio of 1:1. 10 μl of the mixed solution was added to the corresponding wells of a 384-well plate. The plate was sealed and incubated at room temperature (25° C.) for 3 h. A BMG microplate reader was used to read HTRF, and the ratio was calculated according to the following formula: Ratio=signal665nm/signal620nm×10000. […] IC50 was calculated through log(inhibitor) vs. response—Variable slope fitting by the Graphpad Prism software.

Experiment [1] concerns STING pathway cytokine hIFN-β in human THP-1 cells. The experiment can be described thus: ELISA of STING pathway cytokine hIFN-β expression in human THP-1 cells. The format is cell-based. Conditions: for EC50: hIFN-β expression; for EC50 / Emax: 8 hours, ELISA; for Emax: highest expression of hIFN-β; for agonistic effect on the expression of hIFN-β: result in words. The source says:
In this experiment, the expression of STING signal pathway cytokine hIFN-β was detected in THP1 cells (Nanjing Cobioer) by the ELISA method, so as to evaluate the agonistic effect of the compounds to be tested on the expression of STING pathway cytokine hIFN-β at the cellular level.
THP1 cells (Nanjing Cobioer) in the logarithmic phase were centrifuged, and resuspended in a cell culture solution to a density of 8×10^6 cells/ml. The cell suspension was inoculated into a 24-well cell culture plate (Corning) at 250 μL/well.
The mother liquor of the compound to be tested was diluted with a cell culture solution to obtain a 2× working concentration diluted solution (control compounds 1 and 2 were diluted at a 2-fold gradient: 200, 100, 50, 25, 12.5, 6.25, 3.125, 1.5625 and 0 μM; and compounds 4, 6, and 8 were diluted at a 3-fold gradient: 200, 66.67, 22.22, 7.41, 2.47, 0.82, 0.27, 0.091 and 0 μM). The 2× working concentration diluted solution of the compound was added into 24-well plate (250 μl of the culture solution containing 2% DMSO was added into the negative control well) at 250 μL/well. The culture plate was placed in a cell culture incubator, and incubated for 8 hours. After the cell incubation, the supernatant was collected by centrifugation at 300 g×5 min, and the hIFN-β content (pg/ml) in the cell culture supernatant was detected according to the operating instructions of the VeriKine Human […] ELISA kit from PBL (obtained by conversion of the […] absorbance-hIFN-β standard concentration standard curve and the OD450 nm absorbance value read by the microplate reader). […] was calculated through log(agonist) vs. response—Variable slope fitting by the Graphpad Prism software, and the experimental results are shown in Table 2.
In the table, EC50 refers to the concentration of a compound when the expression of hIFN-β generated by stimulation of the compound reaches half of Emax and Emax refers to the highest expression of hIFN-β generated by stimulation of the compound.
On the technique in general: An ELISA detects its analyte on a solid surface through an enzyme-linked reagent.

Experiment [2] concerns STING pathway cytokine mIFN-β in mouse Raw264.7 cells. The experiment in a line: ELISA of STING pathway cytokine mIFN-β expression in mouse Raw264.7 cells. Conditions: for Emax: highest expression of mIFN-β; for Emax / EC50: 6 h, ELISA; for EC50: mIFN-β expression; for agonistic effect on the expression of mIFN-β: result in words. It counts as cell-based. The source says:
In this experiment, the expression of STING signal pathway cytokine mIFN-β was detected in Raw264.7 cells (Nanjing Cobioer) by the ELISA method, so as to evaluate the agonistic effect of the compound to be tested on the expression of STING pathway cytokine mIFN-β at the cellular level.
Raw264.7 cells (Nanjing Cobioer) in the logarithmic phase were centrifuged, and resuspended in a cell culture solution to a density of 1.6×10^6 cells/ml. The cell suspension was inoculated into a 24-well cell culture plate (Corning) at 250 μL/well. The mother liquor of the compound to be tested was gradiently diluted with a cell culture solution to obtain a 2× working concentration diluted solution (control compound 1 was diluted at a 3-fold gradient: 200, 66.67, 22.22, 7.41, 2.47, 0.82, 0.27 and 0 μM; control compound 2 was diluted at a 2-fold gradient: 200, 100, 50, 25, 12.5, 6.25, 3.125 and 0 μM; and compounds 4, 6 and 8 were diluted at a 4-fold gradient: 200, 50, 12.5, 3.13, 0.78, 0.20, 0.049 and 0 μM). The 2× working concentration diluted solution of the compound was added into a 24-well plate (250 μl of the culture solution containing 2% DMSO was added into the negative control well) at 250 μL/well. The culture plate was then placed in a cell incubator, and incubated for 6 h. After the cell incubation, the supernatant was collected by centrifugation at 300 g×5 min, and the mIFN-β content (pg/ml) in the cell culture supernatant was detected according to the operating instructions of the VeriKinem Mouse IFN Beta ELISA Kit from PBL (obtained by conversion of the OD450 nm absorbance-mIFN-β standard concentration standard curve and the OD450 nm absorbance value read by the microplate reader). EC50 was calculated through log(agonist) vs. response—Variable slope fitting by the Graphpad Prism software, and the experimental results are shown in Table 3.
In the table, EC50 refers to the concentration of a compound when the expression of mIFN-β generated by stimulation of the compound reaches half of Emax; and Emax refers to the highest expression of mIFN-β generated by stimulation of the compound.

T1 sequence (Q86WV6 whole entry H232R): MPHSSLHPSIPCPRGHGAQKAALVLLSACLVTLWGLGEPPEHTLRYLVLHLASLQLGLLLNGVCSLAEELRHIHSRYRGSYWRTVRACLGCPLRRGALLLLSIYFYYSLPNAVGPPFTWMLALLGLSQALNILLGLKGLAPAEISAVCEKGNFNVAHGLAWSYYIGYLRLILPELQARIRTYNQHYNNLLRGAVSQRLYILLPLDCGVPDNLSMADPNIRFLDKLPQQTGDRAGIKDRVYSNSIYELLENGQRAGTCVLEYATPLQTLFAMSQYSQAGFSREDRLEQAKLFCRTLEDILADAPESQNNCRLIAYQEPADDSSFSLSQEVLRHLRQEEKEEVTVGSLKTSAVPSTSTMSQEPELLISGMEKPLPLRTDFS

As usually defined, the Ki is a dissociation constant, usually derived from enzyme kinetics or from competition with a known ligand. In general, IC50 refers to the midpoint of a concentration-inhibition curve. Lower therefore signals inhibition by little substance. Broadly, the EC50 is the concentration at which the effect is half-maximal. In the case of `COc1cc2sc(C(=O)N(C)CCC(=O)O)cc2cc1OCCCOc1cc2sc(C(=O)CCC(=O)O)cc2cc1OC` [Compound 4, 4-(6-(3-((2-((2-carboxyethyl)(methyl)carbamoyl)-6-methoxybenzo[b]thiophen-5-yl)oxy)propoxy)-5-methoxybenzo[b]thiophen-2-yl)-4-oxobutanoic acid], on hSTING protein, the inhibition constant Ki is 16.1 nM, the IC50 worked out at 32.2 nM and the “binding affinity to the hSTING protein” value is reported as “strong binding affinity”. Also, in experiment [1], it took 5570 nM to reach a half-maximal effect (EC50), the “Emax” value worked out at 908.0 pg/mL and the “agonistic effect on the expression of hIFN-β” value (“agonistic effect … of hIFN-β” below) is reported as “strong agonistic effect”. Also, in experiment [2], the “Emax” value was determined as 1082.21 pg/mL, a half-maximal effect (EC50) was put at 3600 nM and the “agonistic effect on the expression of mIFN-β” value (“agonistic effect … of mIFN-β” below) is listed as “strong agonistic effect”.
In the case of `COc1cc2sc(C(=O)CCC(=O)O)cc2cc1OCCCOc1cc2sc(C(=O)N(C)CCC(=O)O)cc2cc1OC` [Compound 6, 4-(5-(3-((2-((2-carboxyethyl)(methyl)carbamoyl)-5-methoxybenzo[b]thiophen-6-yl)oxy)propoxy)-6-methoxybenzo[b]thiophen-2-yl)-4-oxobutanoic acid], on hSTING protein, the Ki is 4.55 nM, the IC50 was 9.1 nM and the “binding affinity to the hSTING protein” value was “strong binding affinity”. In experiment [1], a half-maximal response (EC50) required 1820 nM, the “Emax” value is 829.6 pg/mL and the “agonistic effect … of hIFN-β” value is “strong agonistic effect”. Moreover, in experiment [2], the “Emax” value stood at 1012.51 pg/mL, the EC50 was found to be 3800 nM and the “agonistic effect … of mIFN-β” value is recorded as “strong agonistic effect”.
Turning to `COc1cc2sc(C(=O)CCC(=O)O)cc2cc1OCCCOc1cc2cc(C(=O)N(C)CCC(=O)O)sc2cc1OC` [Compound 8, 4-(5-(3-((2-((2-carboxyethyl)(methyl)carbamoyl)-6-methoxybenzo[b]thiophen-5-yl)oxy)propoxy)-6-methoxybenzo[b]thiophen-2-yl)-4-oxobutanoic Acid], at hSTING protein, the Ki is 0.069 nM, the IC50 is 0.139 nM and the “binding affinity to the hSTING protein” value was “strong binding affinity”. In addition, in experiment [1], a half-maximal response (EC50) required 1250 nM, the “Emax” value amounted to 917.1 pg/mL and the “agonistic effect … of hIFN-β” value is listed as “strong agonistic effect”. Further, in experiment [2], the “Emax” value was found to be 1176.75 pg/mL, the EC50 stood at 560 nM and the “agonistic effect … of mIFN-β” value is recorded as “strong agonistic effect”.

These data come from patent US12269816B2, “Benzothiophene compound, preparation method therefor and use thereof” (SICHUAN KELUN-BIOTECH BIOPHARMACEUTICAL CO., LTD., priority 2019, dated 2025).
